Data from paper PMC9926234, “Iterative computational design and crystallographic screening identifies potent inhibitors targeting the Nsp3 macrodomain of SARS-CoV-2” (Proceedings of the National Academy of Sciences of the …, 2023).

Each compound was assayed against SARS-CoV-2 NSP3 Mac1 (Severe acute respiratory syndrome coronavirus 2, UniProt P0DTD1). Conditions: PanDDA event map background density correction; crystal soak, compound concentration 100 mM.
Type: binding
In the case of `Cc1oc(CNc2ncnc3[nH]c4ccccc4c23)cc1C(=O)O` [Compound Z3124], the 1-BDC is reported as 0.09.
Work on `CC(F)(F)c1cncc(C(=O)NC(Cc2cncc(Br)c2)C(=O)O)c1` (centres unmarked) [Compound Z3140] yielded a 1-BDC of 0.1.
Work on `O=C(CCCCc1ccc(Br)cc1)NC(CCc1cn[nH]c1)C(=O)O` (centres unmarked) [Compound Z3213] yielded a 1-BDC of 0.11.
`O=C(NC1C=CC(C(=O)O)C1)c1ncnc2sccc12` (centres unmarked) [Compound Z6645] was tested, and the 1-BDC was 0.4.
For `Cc1oc(C(N)=O)cc1S(=O)(=O)Nc1ccc(Br)c(C#N)c1` [Compound Z6708], the 1-BDC was 0.26.
`Cn1ncc2ncnc(NS(=O)(=O)Cc3ccc(CC#N)cc3)c21` [Compound Z6742] showed a 1-BDC of 0.31.
`Cc1oc(C(N)=O)cc1S(=O)(=O)Nc1cnc(Cl)c(C#N)c1` [Compound Z6746] showed a 1-BDC of 0.16.

Same assay, conditions: PanDDA event map, 1 minus background density correction; crystal soaking of Mac1
In the case of `CCC(=O)Nc1nc(C)c(S(=O)(=O)Nc2cccc(C#N)c2)s1` [Compound Z0611], the “1-BDC (PanDDA)” value is reported as 0.33.
For `O=C(O)CC1CC(CNC(=O)c2cncc3sccc23)C1` (centres unmarked) [Compound Z1558], the “1-BDC (PanDDA)” value was 0.24.
For `Cc1oc(CNc2ncnc3[nH]c4ccccc4c23)cc1C(=O)O` [Compound Z3124], the “1-BDC (PanDDA)” value was 0.09.
With `CC(F)(F)c1cncc(C(=O)NC(Cc2cncc(Br)c2)C(=O)O)c1` (centres unmarked) [Compound Z3140] the “1-BDC (PanDDA)” value was 0.1.
In the case of `O=C(NS(=O)(=O)Cc1ccc(Br)c(F)c1)c1cnn2ccccc12` [Compound Z3209], the “1-BDC (PanDDA)” value is reported as 0.38.
With `O=C(O)CC(NC(=O)c1cc(F)cc2[nH]cnc12)c1ccc(Br)cc1` (centres unmarked) [Compound Z3722] the “1-BDC (PanDDA)” value was 0.29.
In the case of `O=C(O)Cc1cccc(CNC(=O)c2ncnc3ccsc23)c1` [Compound Z5712], the “1-BDC (PanDDA)” value is reported as 0.32.
With `O=C(O)Cc1ccc(CNC(=O)c2ccnc3ccsc23)cc1` [Compound Z6625] the “1-BDC (PanDDA)” value was 0.12.
With `COc1cncc(C(=O)NCCNC(=O)c2ncccc2O)c1` [Compound Z6634] the “1-BDC (PanDDA)” value was 0.14.
For `O=C(NC1C=CC(C(=O)O)C1)c1ncnc2sccc12` (centres unmarked) [Compound Z6645], the “1-BDC (PanDDA)” value was 0.4.
With `CC(=O)Nc1nc(C)c(S(=O)(=O)Nc2ccc(C)c(C#N)c2)s1` [Compound Z6707] the “1-BDC (PanDDA)” value was 0.23.
`Cc1oc(C(N)=O)cc1S(=O)(=O)Nc1ccc(Br)c(C#N)c1` [Compound Z6708] was tested, and the “1-BDC (PanDDA)” value was 0.26.
In the case of `Cn1ncc2ncnc(NS(=O)(=O)Cc3ccc(CC#N)cc3)c21` [Compound Z6742], the “1-BDC (PanDDA)” value is reported as 0.31.
`Cc1oc(C(N)=O)cc1S(=O)(=O)Nc1cnc(Cl)c(C#N)c1` [Compound Z6746] was tested, and the “1-BDC (PanDDA)” value was 0.16.
For `O=C(O)c1ccc(F)c(CNC(=O)c2ccc3[nH]ccc3c2)c1` [Compound Z7647], the “1-BDC (PanDDA)” value was 0.09.
With `O=C(NC1c2cccc(O)c2CC1C(=O)O)c1ccc(Nc2cccnc2)cc1` (centres unmarked) [Compound Z8539_0018] the “1-BDC (PanDDA)” value was 0.1.
`O=C(Nc1ccc(C(=O)NC2c3cccc(O)c3CC2C(=O)O)cn1)NC1CC1` (centres unmarked) [Compound Z8539_0054] showed a 1-BDC of 0.14.
For `Nc1nc(N)c2ncn(Cc3csc(Cl)n3)c2n1` [Compound Z8572], the 1-BDC was 0.44.

Same assay, conditions: PanDDA event map; crystal soak, Compound_concentration 100 mM, Echo_dispense_volume 40 nl
With `CCC(=O)Nc1nc(C)c(S(=O)(=O)Nc2cccc(C#N)c2)s1` [Compound Z0611] the 1-BDC was 0.33.
For `O=C(O)CC1CC(CNC(=O)c2cncc3sccc23)C1` (centres unmarked) [Compound Z1558], the 1-BDC was 0.24.
In the case of `O=C(NS(=O)(=O)Cc1ccc(Br)c(F)c1)c1cnn2ccccc12` [Compound Z3209], the 1-BDC is reported as 0.38.
With `O=C(O)CC(NC(=O)c1cc(F)cc2[nH]cnc12)c1ccc(Br)cc1` (centres unmarked) [Compound Z3722] the 1-BDC was 0.29.
Compound `O=C(O)Cc1cccc(CNC(=O)c2ncnc3ccsc23)c1` [Compound Z5712] has a 1-BDC of 0.32.
`O=C(O)Cc1ccc(CNC(=O)c2ccnc3ccsc23)cc1` [Compound Z6625] gave a 1-BDC of 0.12.
In the case of `COc1cncc(C(=O)NCCNC(=O)c2ncccc2O)c1` [Compound Z6634], the 1-BDC is reported as 0.14.
With `CC(=O)Nc1nc(C)c(S(=O)(=O)Nc2ccc(C)c(C#N)c2)s1` [Compound Z6707] the 1-BDC was 0.23.
With `O=C(O)c1ccc(F)c(CNC(=O)c2ccc3[nH]ccc3c2)c1` [Compound Z7647] the 1-BDC was 0.09.

Same assay, conditions: crystal soak, Compound_concentration 100 mM, Echo_dispense_volume 40 nl; PanDDA run (background map) dmso_34, nohits_35 or nohits_62
With `CCC(=O)Nc1nc(C)c(S(=O)(=O)Nc2cccc(C#N)c2)s1` [Compound Z0611] the “PanDDA hit?” value was “TRUE”.
In the case of `O=C(O)CC1CC(CNC(=O)c2cncc3sccc23)C1` (centres unmarked) [Compound Z1558], the “PanDDA hit?” value is reported as “TRUE”.
In the case of `O=C(NS(=O)(=O)Cc1ccc(Br)c(F)c1)c1cnn2ccccc12` [Compound Z3209], the “PanDDA hit?” value is reported as “TRUE”.
`O=C(O)CC(NC(=O)c1cc(F)cc2[nH]cnc12)c1ccc(Br)cc1` (centres unmarked) [Compound Z3722] was tested, and the “PanDDA hit?” value was “TRUE”.
With `O=C(O)Cc1cccc(CNC(=O)c2ncnc3ccsc23)c1` [Compound Z5712] the “PanDDA hit?” value was “TRUE”.
With `O=C(O)Cc1ccc(CNC(=O)c2ccnc3ccsc23)cc1` [Compound Z6625] the “PanDDA hit?” value was “TRUE”.
In the case of `COc1cncc(C(=O)NCCNC(=O)c2ncccc2O)c1` [Compound Z6634], the “PanDDA hit?” value is reported as “TRUE”.
In the case of `CC(=O)Nc1nc(C)c(S(=O)(=O)Nc2ccc(C)c(C#N)c2)s1` [Compound Z6707], the “PanDDA hit?” value is reported as “TRUE”.
For `O=C(O)c1ccc(F)c(CNC(=O)c2ccc3[nH]ccc3c2)c1` [Compound Z7647], the “PanDDA hit?” value was “TRUE”.

Same assay, conditions: ligand modeled from this dataset; compound concentration 100 mM
For `O=C(NC1c2cccc(O)c2CC1C(=O)O)c1ccc(Nc2cccnc2)cc1` (centres unmarked) [Compound Z8539_0018], the “Modeled?” value was “TRUE”.
In the case of `O=C(Nc1ccc(C(=O)NC2c3cccc(O)c3CC2C(=O)O)cn1)NC1CC1` (centres unmarked) [Compound Z8539_0054], the “Modeled?” value is reported as “TRUE”.

Same assay, conditions: ligand modeled in structure, crystal soak, Compound_concentration 100 mM
`Nc1nc(N)c2ncn(Cc3csc(Cl)n3)c2n1` [Compound Z8572] was tested, and the “Modeled?” value was “TRUE”.

Same assay, conditions: ligand modeled in the crystal structure; crystal soak, compound concentration 100 mM
In the case of `Cc1oc(CNc2ncnc3[nH]c4ccccc4c23)cc1C(=O)O` [Compound Z3124], the “Modeled?” value is reported as “TRUE”.
In the case of `CC(F)(F)c1cncc(C(=O)NC(Cc2cncc(Br)c2)C(=O)O)c1` (centres unmarked) [Compound Z3140], the “Modeled?” value is reported as “TRUE”.
`O=C(NC1C=CC(C(=O)O)C1)c1ncnc2sccc12` (centres unmarked) [Compound Z6645] was tested, and the “Modeled?” value was “TRUE”.
For `Cc1oc(C(N)=O)cc1S(=O)(=O)Nc1ccc(Br)c(C#N)c1` [Compound Z6708], the “Modeled?” value was “TRUE”.
`Cn1ncc2ncnc(NS(=O)(=O)Cc3ccc(CC#N)cc3)c21` [Compound Z6742] was tested, and the “Modeled?” value was “TRUE”.
`Cc1oc(C(N)=O)cc1S(=O)(=O)Nc1cnc(Cl)c(C#N)c1` [Compound Z6746] was tested, and the “Modeled?” value was “TRUE”.

Same assay, conditions: ligand modeled; crystal soak, Compound_concentration 100 mM, Echo_dispense_volume 40 nl
`CCC(=O)Nc1nc(C)c(S(=O)(=O)Nc2cccc(C#N)c2)s1` [Compound Z0611] was tested, and the “Modeled?” value was “TRUE”.
`O=C(O)CC1CC(CNC(=O)c2cncc3sccc23)C1` (centres unmarked) [Compound Z1558] was tested, and the “Modeled?” value was “TRUE”.
With `O=C(NS(=O)(=O)Cc1ccc(Br)c(F)c1)c1cnn2ccccc12` [Compound Z3209] the “Modeled?” value was “TRUE”.
With `O=C(O)CC(NC(=O)c1cc(F)cc2[nH]cnc12)c1ccc(Br)cc1` (centres unmarked) [Compound Z3722] the “Modeled?” value was “TRUE”.
For `O=C(O)Cc1cccc(CNC(=O)c2ncnc3ccsc23)c1` [Compound Z5712], the “Modeled?” value was “TRUE”.
For `O=C(O)Cc1ccc(CNC(=O)c2ccnc3ccsc23)cc1` [Compound Z6625], the “Modeled?” value was “TRUE”.
In the case of `COc1cncc(C(=O)NCCNC(=O)c2ncccc2O)c1` [Compound Z6634], the “Modeled?” value is reported as “TRUE”.
In the case of `CC(=O)Nc1nc(C)c(S(=O)(=O)Nc2ccc(C)c(C#N)c2)s1` [Compound Z6707], the “Modeled?” value is reported as “TRUE”.
In the case of `O=C(O)c1ccc(F)c(CNC(=O)c2ccc3[nH]ccc3c2)c1` [Compound Z7647], the “Modeled?” value is reported as “TRUE”.

Same assay, conditions: ligand occupancy after refinement (phenix.refine); crystal soaking of Mac1
With `CCC(=O)Nc1nc(C)c(S(=O)(=O)Nc2cccc(C#N)c2)s1` [Compound Z0611] the Refined occupancy was 66.
Work on `O=C(O)CC1CC(CNC(=O)c2cncc3sccc23)C1` (centres unmarked) [Compound Z1558] yielded a Refined occupancy of 48.
Compound `Cc1oc(CNc2ncnc3[nH]c4ccccc4c23)cc1C(=O)O` [Compound Z3124] has a Refined occupancy of 18.
In the case of `CC(F)(F)c1cncc(C(=O)NC(Cc2cncc(Br)c2)C(=O)O)c1` (centres unmarked) [Compound Z3140], the Refined occupancy is reported as 20.
Compound `O=C(NS(=O)(=O)Cc1ccc(Br)c(F)c1)c1cnn2ccccc12` [Compound Z3209] has a Refined occupancy of 76.
With `O=C(O)CC(NC(=O)c1cc(F)cc2[nH]cnc12)c1ccc(Br)cc1` (centres unmarked) [Compound Z3722] the Refined occupancy was 40.
`O=C(O)Cc1cccc(CNC(=O)c2ncnc3ccsc23)c1` [Compound Z5712] gave a Refined occupancy of 64.
`O=C(O)Cc1ccc(CNC(=O)c2ccnc3ccsc23)cc1` [Compound Z6625] showed a Refined occupancy of 24.
`COc1cncc(C(=O)NCCNC(=O)c2ncccc2O)c1` [Compound Z6634] showed a Refined occupancy of 28.
With `O=C(NC1C=CC(C(=O)O)C1)c1ncnc2sccc12` (centres unmarked) [Compound Z6645] the Refined occupancy was 80.
`CC(=O)Nc1nc(C)c(S(=O)(=O)Nc2ccc(C)c(C#N)c2)s1` [Compound Z6707] showed a Refined occupancy of 46.
`Cc1oc(C(N)=O)cc1S(=O)(=O)Nc1ccc(Br)c(C#N)c1` [Compound Z6708] showed a Refined occupancy of 52.
`Cn1ncc2ncnc(NS(=O)(=O)Cc3ccc(CC#N)cc3)c21` [Compound Z6742] was tested, and the Refined occupancy was 62.
Work on `Cc1oc(C(N)=O)cc1S(=O)(=O)Nc1cnc(Cl)c(C#N)c1` [Compound Z6746] yielded a Refined occupancy of 32.
`O=C(O)c1ccc(F)c(CNC(=O)c2ccc3[nH]ccc3c2)c1` [Compound Z7647] was tested, and the Refined occupancy was 18.
`O=C(NC1c2cccc(O)c2CC1C(=O)O)c1ccc(Nc2cccnc2)cc1` (centres unmarked) [Compound Z8539_0018] was tested, and the Refined occupancy was 20.
Compound `O=C(Nc1ccc(C(=O)NC2c3cccc(O)c3CC2C(=O)O)cn1)NC1CC1` (centres unmarked) [Compound Z8539_0054] has a Refined occupancy of 28.
Compound `Nc1nc(N)c2ncn(Cc3csc(Cl)n3)c2n1` [Compound Z8572] has a Refined occupancy of 88.

Same assay, conditions: what was observed in density instead of the vendor structure
`O=C(O)CC1CC(CNC(=O)c2cncc3sccc23)C1` (centres unmarked) [Compound Z1558] was tested, and the “Comment (ligand modelled in the crystal structure)” value was “C4 substituted thiophene”.
